The supplement of paper PMC7840683
± gives the standard deviation of the averaged measurements.

Test system: HepaRG
Test: LDH release cytotoxicity, % of total lysis control; higher = more cytotoxic
Conditions: 48 h
How it was run: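 Eight-point half-log series of test chemicals, the highest at 100 µM, were given in duplicate for 48 h to single-lot HepaRG cells on collagen I-coated 96-well plates in serum-free induction medium with 0.5% DMSO. A Tecan Safire read resorufin fluorescence from CytoTox-ONE as a measure of LDH in 50 µL spent medium, with 0.1% Triton X in total lysis wells. Percent cytotoxicity was normalized to on-plate vehicle and total lysis controls and averaged over the duplicates.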

SMILES	LDH release cytotoxicity (0.03162 µM) [%]	LDH release cytotoxicity (0.1 µM) [%]	LDH release cytotoxicity (0.3162278 µM) [%]	LDH release cytotoxicity (1 µM) [%]	LDH release cytotoxicity (3.16228 µM) [%]	LDH release cytotoxicity (10 µM) [%]	LDH release cytotoxicity (31.6228 µM) [%]	LDH release cytotoxicity (100 µM) [%]	also measured
O=C(O)c1c(Cl)ccc2cc(Cl)cnc12 [Quinclorac]	-0.412 ± 0.14	-0.369 ± 0.069	-0.616 ± 0.54	-0.762 ± 0.34	-0.281 ± 0.41	-0.297 ± 0.37	0.046 ± 0.18	0.495 ± 0.038	
CNCc1ccc(NC(=O)c2c[nH]c3c2C(=O)CCC3)cc1	-1.87 ± 1.2	-0.925 ± 0.22	-1.24 ± 0.49	-1.23 ± 0.55	-1.06 ± 0.37	-0.719 ± 0.61	-0.723 ± 0.24	-1.06 ± 0.15	
ClC1=C(Cl)C2(Cl)C3C4OC4C(Cl)C3C1(Cl)C2(Cl)Cl (stereo not given) [Heptachlor epoxide B]	-4.87 ± 0.88	-4.16 ± 0.083	-4.44 ± 0.44	-3.99 ± 0.81	-3.88 ± 0.66	-3.4 ± 0.55	-3.14 ± 0.91	-0.787 ± 0.59	
O=C(O)c1nc(Cl)ccc1Cl [Clopyralid-olamine]	-1.75 ± 0.021	-1.37 ± 0.22	-2.18 ± 0.81	-3.35 ± 1.5	-1.65 ± 0.032	-1.04 ± 0.99	-1.18 ± 0.77	0.521 ± 0.14	
CCCCC1CN(CC2CCOCC2)C(=O)OC12CCN(C1(C)CCN(C(=O)c3c(C)ncnc3C)CC1)CC2 (stereo not given)									LDH release cytotoxicity (0.02846 µM): -1.26 ± 0.92%; LDH release cytotoxicity (0.09 µM): -1.45 ± 1.3%; LDH release cytotoxicity (0.284605 µM): -0.87 ± 0.88%; LDH release cytotoxicity (0.9 µM): -1.55 ± 0.49%; LDH release cytotoxicity (2.84605 µM): -1.48 ± 0.091%; LDH release cytotoxicity (9 µM): -1.68 ± 0.22%; LDH release cytotoxicity (28.4605 µM): -0.822 ± 0.31%; LDH release cytotoxicity (90 µM): -0.451 ± 0.11%
c1cc(-c2ccncc2)ccn1 [4,4'-Bipyridine]	-0.85 ± 0.14	-1.15 ± 0.96	-0.941 ± 0.12	-1.18 ± 0.065	-1.05 ± 0.039	4.58 ± 0.24	24 ± 0.4	18 ± 1.7	
CC(=O)c1ccc2c(c1)C(NC(=O)c1ccc(F)cc1)C(O)C(C)(C)O2 (stereo not given) [Carabersat]									LDH release cytotoxicity (0.0308322 µM): -0.845 ± 0.35%; LDH release cytotoxicity (0.0975 µM): -1.53 ± 0.47%; LDH release cytotoxicity (0.308322 µM): -2.26 ± 1.3%; LDH release cytotoxicity (0.975 µM): -2.21 ± 0.25%; LDH release cytotoxicity (3.0832207 µM): -1.81 ± 0.28%; LDH release cytotoxicity (9.75 µM): -1.6 ± 0.32%; LDH release cytotoxicity (30.832207 µM): -1.02 ± 0.098%; LDH release cytotoxicity (97.5 µM): 0.388 ± 0.96%
CCOc1cccc(-n2cc(C(=O)N3CCN(c4cc(C(=O)O)c5ccccc5c4)CC3)nc2-c2ccc(C)cc2)c1	1.24 ± 1.9	-0.332 ± 0.54	0.167 ± 0.63	-0.486 ± 0.56	-0.46 ± 0.52	-0.211 ± 1	9.35 ± 0.66	44.3 ± 2.7	
COP(=S)(OC)Oc1ccc([N+](=O)[O-])cc1 [Methyl parathion]	-0.787 ± 0.9	-0.971 ± 1.1	0.295 ± 1.4	-1.21 ± 0.45	-0.845 ± 0.36	0.053 ± 0.23	0.525 ± 0.42	1.01 ± 0.04	
O=CCCCC=O [Glutaraldehyde]	-0.884 ± 0.62	-1.62 ± 0.91	-1.72 ± 0.78	-1.74 ± 0.39	-1.11 ± 0.16	-0.663 ± 0.23	-1.18 ± 0.084	0.174 ± 0.34	
CON=C(C1=NOCCO1)c1ccccc1Oc1ncnc(Oc2ccccc2Cl)c1F [Fluoxastrobin]	-1.84 ± 0.41	-1.61 ± 0.52	-0.5866 ± 0.0016	0.517 ± 2.5	-0.886 ± 0.77	-0.0116 ± 2.9	13.1 ± 0.82	33.8 ± 4	
COc1ccc2c(c1)c(CC(=O)O)c(C)n2C(=O)c1ccc(Cl)cc1 [1-(p-Chlorobenzoyl)-5-methoxy-2-methyl-Indole-3-acetic acid]	-0.418 ± 0.2	-0.408 ± 0.23	-0.399 ± 0.2	0.493 ± 0.042	0.818 ± 0.36	0.284 ± 0.81	0.637 ± 0.53	1.2 ± 0.22	
Nn1cnnc1 [4-Amino-1,2,4-triazole]									LDH release cytotoxicity (0.0320971 µM): -2.94 ± 0.43%; LDH release cytotoxicity (0.1015 µM): -2.79 ± 0.045%; LDH release cytotoxicity (0.320971 µM): -3.1 ± 0.21%; LDH release cytotoxicity (1.015 µM): -3.38 ± 1.2%; LDH release cytotoxicity (3.2097118 µM): -2.7 ± 0.23%; LDH release cytotoxicity (10.15 µM): -3.19 ± 0.35%; LDH release cytotoxicity (32.0971 µM): -3.08 ± 0.13%; LDH release cytotoxicity (101.5 µM): 0.447 ± 1.1%
CN1C(=O)CCC1c1cccnc1 (stereo not given) [Cotinine]	-0.994 ± 0.49	-2.34 ± 0.73	-0.492 ± 0.14	-1.31 ± 0.42	-0.499 ± 0.41	-0.978 ± 0.13	-0.74 ± 0.22	0.597 ± 0.61	
CCOCCOCCO [2-(2-Ethoxyethoxy)ethanol]	0.116 ± 0.16	-1.88 ± 0.064	-1.03 ± 0.55	-1.82 ± 0.14	-1.06 ± 0.26	-0.761 ± 0.11	-0.843 ± 0.34	-0.504 ± 0.29	
